Measured values reported in patent US12648928B2, “Intervention strategy for prevention or treatment of diabetes mellitus, autoimmune disease, inflammatory disease or cardiovascular disease” (ACADEMISCH MEDISCH CENTRUM, priority 2020, dated 2026).

Experiments:
murine CD4+ T cells = test: In vitro CD4+ T cell activation assay (anti-CD3/anti-CD28); assay type: cell-based; details: for Th1 responses in CD4 T cells: anti-CD3 & anti-CD28 mAbs, 24 hours (FIG. 11)
Protocol: Primary CD4+ T cells were freshly isolated by negative selection from spleens of C57/B16 mice (N=3 per experiment). Briefly, spleens were smashed in a culture dish and passed twice through a strainer (70 μm and 40 μm, respectively) to obtain a single-cell suspension.
Using the negative selection (CD4+ T Cell Isolation kit, Miltenyi Biotec, #130-10-454). Non-CD4 T cells were depleted by retaining them in LS magnetizing column (Miltenyi Biotec).
Isolated CD4 T cells were cultured in 96-well plates (1×10^5 per well) in RPMI1640 medium supplemented with 10% fetal bovine serum, 100 U/ml penicillin, 100 μg/ml streptomycin, 2 mM L-glutamine. Treatment with the metabolites 6-BT (1/10 μM), LysoPC(20:0) (10/50 μM) or MA-GPC (10/50/100 μM) and activation with 2.5 μg/ml soluble anti-CD3 (145-2C11, eBioscience) and 1 μg/ml soluble anti-CD28 (37.51, eBioscience) antibodies started immediately after seeding in 200 i/well complete RPMI1640 media for a 24-hour period, at the end of which supernatant was harvested and stored at −80° C.
(§1) Specific ELISAs (R&D Systems) were utilized to measure the concentration of TNFα, IFNβ, and IFNγ in cell supernatant of murine monocytes, macrophages ad T cells, respectively, according to the manufacturer's instructions. The concentration of insulin after 24-hour treatment with metabolites or after GSIS were determined using Rat insulin ELISA (Mercodia) according to the manufacturer's instructions. GSIS was calculated by subtracting the concentration of insulin at 1 mM glucose to the insulin rate at 22 mM glucose.
Particularly in the context of autoimmune diabetes, the activity of T cells is driving disease onset and progression. […] To mimic antigen presentation, murine CD4 T cells (isolated from spleens; Uchimura T., The Innate Immune Sensor NLRC3 Acts as a Rheostat that Fine-Tunes T Cell Responses in Infection and Autoimmunity. Immunity 2019) were activated by monoclonal antibodies against CD3 and CD28 (2.5 and 1 μg/ml, respectively).

[1] = test system: murine bone marrow-isolated monocytes or bone marrow-derived macrophages; test: In vitro stimulation of murine monocytes / bone marrow-derived macrophages, cytokine ELISA; assay type: cell-based; details: for cytokine secretion by monocytes: murine monocytes CD11b+ activated with LPS (10 μg/ml) for 24 hours, TLR4 stimulation (FIG. 8)
Protocol: Naïve bone marrow monocytes were isolated from BM cells. Briefly, hind legs were removed from 3 mice, cleaned from surrounding muscles. The femur and tibia bones were trimmed at their extremities, the BM content was flushed out with cold PBS using a 10 ml syringe and a 25G needle and filtered through a 40 μm strainer. Red blood cells (RBC) were lysed with 1× RBC lysis buffer (Biolegend) for 5 min. on ice. CD11b+ monocytes were further purified by positive selection using a cocktail of CD11 b magnetic beads (Miltenyi Biotec, #130-049-601) and magnetizing MS columns (Miltenyi Biote) according to the manufacturer's instructions. Subsequently, monocytes were seeded in F-bottom 96-well plates at 1×10^5 cells per well in RPMI1640 supplemented with 10% heat-inactivated fetal bovine serum, penicillin (100 U/ml), streptomycin (100 μg/ml), L-glutamine (2 mM) […]. Monocytes were activated with 10 μg/ml LPS (Sigma-Aldrich) and subjected to treatment with 6-BT (10/100 μM), LysoPC(20:0) (10/50 μM), MA-GPC (10/50/100 μM), or appropriate vehicle. Cells were kept in a final volume of 200 μl/well for 24 hours, after which supernatant was harvested and stored at −80° C.
Bone marrow-derived macrophages (BMDM) and DC (BMDC) were obtained by differentiating freshly isolated BM cells from femur and tibia bones (as above described) of C57/B16 mice (N=3 per experiment). For BMDM, BM cells were seeded at 3×10^6 cells per 10 cm dish and cultured for 7 days in 12 ml RPMI1640 medium with 20% fetal bovine serum, 30% L-929 cell conditioned media, as source of murine macrophage colony-stimulating factor (M-CSF). For BMDC, BM cells were seeded at 0.5×10^6/ml cells in 25 ml in 10 cm dishes and cultured for 7 days in presence of GM-CSF in 5% FBS-RPMI1640 medium. After differentiation, BMDM/DCs were harvested, counted and seeded at a density of 1×10^5 cells per well in a F-bottom 96-well plate and left to adhere for 20 hours before experiments were performed. Macrophages were activated with 10 μg/ml polyinosinic-polycytidylic acid poly(I.C) (InvivoGen) for 24 hours in presence or not of 6-BT (10/100 μM), LysoPC(20:0) (10/50 μM), or MA-GPC (10/50/100 μM) in a final volume of 200 μl/well. At the end of the assay, supernatant was harvested and stored at −80° C.
as §1
Here, murine bone marrow-isolated monocytes (Christ A., Western Diet Triggers NLRP3-Dependent Innate Immune Reprogramming. Cell 2018) or bone marrow-derived macrophages (Swanson K V, A noncanonical function of cGAMP in inflammasome priming and activation. JEM 2017) were exposed for 24 hours to the indicated concentrations of 6-BT (10-100 μM) in presence or not of 10 μg/ml LPS, 10 μg/ml P3C or 10 μg/ml poly(I.C).

NF-κB = NF-κB reporter macrophage luciferase assay (RAW264.7); assay type: cell-based, murine; details: RAW264.7 3x-κB-luc; LPS 10/100 ng/ml 2 hours; different doses (FIG. 7)
Protocol: NF-κB signaling activation was assessed by luciferase activity assay. RAW264.7 cells stably transfected with the 3×-κB-luc plasmid (DNA construct containing three NF-κB sites from the Ig κ light chain promoter coupled to the gene encoding firefly luciferase) were grown in DMEM medium supplemented with 10% heat-inactivated fetal bovine serum, penicillin (100 U/ml), streptomycin (100 μg/ml), L-glutamine (2 mM). Cells were seeded in F-bottom 96-well […] metabolites at different concentrations (6-BT 0,1-100 μM, LysoPC(20:0) 1-10 μM, 16:0-18:2 PE 1-50 μM, MA-GPC 1-100 μM). Afterwards, cells were lysed with 25 μl/well 1×passive lysis buffer and firefly luciferase activity was measured by LUCIFERASE® Assay System (Promega, E1500) on a GLOMAX @-Multi Detection System (Promega).

INS1E beta cells = test: Seahorse XF intracellular metabolism, INS1E beta cells; assay type: cell-based, rat; details: INS1E beta cells; compared with 6-BT
Excerpt: Lastly, it was investigated whether 6-BT may influence the mitochondrial metabolism of beta cells, which rely on ATP and mitochondrial metabolite production for insulin exocytosis. […] Intracellular metabolism measured using a Seahorse XF Analyzer Uchimura T., The Innate Immune Sensor NLRC3 Acts as a Rheostat that Fine-Tunes T Cell Responses in Infection and Autoimmunity.

SMILES | Th1 responses in CD4 T cells (murine CD4+ T cells) | cytokine secretion by monocytes [1] | NFκB pathway activation in macrophages (NF-κB) | type 1 IFN secretion ([1]; PolyI:C for 24 hours, TLR3 stimulation (FIG. 9)) | production of the Th1 cytokine IFNgamma (murine CD4+ T cells; CD4 T cells from spleens, anti-CD3 2.5 μg/ml and anti-CD28 1 μg/ml (FIGS. 16, 20)) | effect on intracellular metabolism (INS1E beta cells)
CCCCC/C=C\C/C=C\C/C=C\C/C=C\CCCC(=O)OC[C@@H](O)COP(=O)([O-])OCC[N+](C)(C)C [A-GPC, 1-arachidonoyl-glycero-phosphocholine] | dampen Th1 responses | halt cytokine secretion | can inhibit NFκB pathway activation |  |  | 
CCCCC/C=C\C/C=C\C/C=C\C/C=C\CCCC(=O)O[C@H](COC(=O)CCCCCCCCCCCCC)COP(=O)([O-])OCC[N+](C)(C)C [MA-GPC, 1-myristoyl-2-arachidonoyl-glycero-phosphocholine] | hampers immune responses | halt cytokine secretion | can inhibit NFκB pathway activation | impair type 1 IFN secretion |  | 
N[C@@H](Cc1c[nH]c2ccccc12)C(=O)O [tryptophan, reference compound] |  |  |  |  | but not tryptophan, exerted inhibitory effect | exerted a different effect than 6-BT
